Test results as given in publication PMC7600351 (Pharmaceutics, 2020).
Where two headings read alike, the source gives them in different places.

Key:
OATP2B1 [1] = target: T1, OATP2B1 (Homo sapiens, UniProt O94956); test: Flow cytometric OATP2B1 inhibition assay (DBF uptake, HEK293 with tetracycline-induced OATP2B1); format: cell-based
T1 construct: expressed in transfected cells; host or cells: HEK293, tetracycline-induced OATP2B1 expression
Procedure: As a cell model for human OATP2B1, HEK293 cells over-expressing OATP2B1 in the presence of tetracycline were used. Cells were cultured under standard cell culture conditions with DMEM/Ham’s F12 medium supplemented with 10% FCS, 4 mM glutamine, 100 U/mL penicillin, and 100 µg/mL streptomycin sulphate. To generate OATP2B1 over-expression, cells were treated 72 h before the assay with 1 µg/mL tetracycline. […] Excluding debris, living cells were gated in the forward/sideward scatter by using the unstained sample. […] Uptake in cells with tetracycline induction was normalised to the uptake in cells without induction. Naringin (1 mM) was used as a positive control.

OATP1B1 = target: T2, OATP1B1 (Homo sapiens, UniProt Q9Y6L6); test: Flow cytometric OATP1B1 inhibition assay (8-FcA uptake, HEK-OATP1B1); format: cell-based
T2 construct: expressed in transfected cells; host or cells: HEK293 (HEK-OATP1B1)
T2 sequence (Q9Y6L6 whole entry): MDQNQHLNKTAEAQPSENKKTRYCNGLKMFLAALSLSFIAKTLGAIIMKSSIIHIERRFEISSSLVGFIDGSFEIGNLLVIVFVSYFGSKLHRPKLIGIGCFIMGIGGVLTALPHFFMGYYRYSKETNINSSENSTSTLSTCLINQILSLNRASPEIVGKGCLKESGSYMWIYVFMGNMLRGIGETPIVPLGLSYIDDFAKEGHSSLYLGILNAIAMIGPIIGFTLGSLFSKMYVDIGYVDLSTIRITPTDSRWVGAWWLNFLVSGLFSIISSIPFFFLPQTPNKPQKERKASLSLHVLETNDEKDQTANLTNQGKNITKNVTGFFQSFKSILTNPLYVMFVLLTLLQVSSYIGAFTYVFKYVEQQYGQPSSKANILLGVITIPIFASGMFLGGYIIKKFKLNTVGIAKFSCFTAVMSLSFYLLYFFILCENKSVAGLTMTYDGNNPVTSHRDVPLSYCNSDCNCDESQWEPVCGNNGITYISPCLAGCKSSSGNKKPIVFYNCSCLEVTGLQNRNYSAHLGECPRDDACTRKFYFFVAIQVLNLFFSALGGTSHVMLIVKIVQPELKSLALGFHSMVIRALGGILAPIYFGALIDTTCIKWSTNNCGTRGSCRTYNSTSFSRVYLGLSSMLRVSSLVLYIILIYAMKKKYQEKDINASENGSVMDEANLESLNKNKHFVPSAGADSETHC
Procedure: (§1) As cell models for human OATP1B1 and OATP1B3, HEK293, a human embryonic kidney cell line, stably transfected with OATP1B1 (HEK-OATP1B1), OATP1B3 (HEK-OATP1B3), or the empty control vector (HEK293-VC G418) were used. Cells were cultured under standard cell culture conditions with DMEM supplemented with 10% FCS, 2 mM glutamine, 100 U/mL penicillin, 100 µg/mL streptomycin sulphate, and 800 µg/mL G418. Inhibition of the OATPs was quantified by flow cytometry assessing the uptake of 8-FcA into HEK293 cells over-expressing the respective transporter after 10 min incubation and normalised to the control cell line as described previously. Intracellular fluorescence was quantified in a MACSQuant 10 Analyzer (Milteny, Bergisch-Gladbach, Germany) with the 488 nm laser for excitation and the 525 nm bandfilter for emission (FITC channel). Excluding debris, living cells were gated in the forward/sideward scatter by using the unstained sample. For each concentration (0.1–100 µM), 30,000 cells were measured and each experiment was performed in triplicate. Rifampicin (20 µM), a well-known inhibitor of OATP1B1 and OATP1B3, was used as a positive control.

CYP1A1 = test: Induction assay in LS180 cells, CYP1A1 mRNA (real-time RT-PCR); format: cell-based, human; conditions: LS180, 4 days; hydroxychloroquine 1, 2, 10, 20 µM; omeprazole 150 µM
Procedure: (§2) For induction experiments, the human colon adenocarcinoma cell line LS180 (available at ATCC, Manassas, VA, USA) was used. This cell line is an established model for investigating gene inductions mediated by PXR or AhR [25, 28]. Cells were cultured under standard cell culture conditions in DMEM supplemented with 10% FCS, 100 U/mL penicillin, 100 µg/mL streptomycin sulphate, 0.1 mM non-essential amino acids, and 2 mM glutamine.
(§3) All media were adjusted to the DMSO content of the solution with the highest DMSO content in the respective experiment (0.1%). The experiment was conducted in quintuplicate. RNA was extracted immediately after harvesting the cells and stored at −80 °C until processing.
(§4) RNA was isolated using the GenElute™ Mammalian Total RNA Miniprep Kit, and cDNA was synthesized with the RevertAid™ H Minus First Strand cDNA Synthesis Kit according to the manufacturer’s instructions. mRNA expression was quantified by real-time RT-PCR with the LightCycler® 480 (Roche Applied Science, Mannheim, Germany) as described previously. […] Data were evaluated via calibrator-normalised relative quantification with efficiency correction using the LightCycler® 480 software version 1.5.1.62 (Roche Applied Science, Mannheim, Germany). Results were expressed as the target/reference ratio divided by the target/reference ratio of the calibrator. […]

all cell lines used = test: Cytotoxicity Detection Kit (LDH release); format: cell-based; conditions: up to 100 µM
Text: The toxic effects of tested compounds can negatively influence transporter inhibition assays.

P-gp (P388/dx cells) = test: P-gp inhibition, calcein-AM uptake assay in P388/dx vs P388 cells; format: cell-based, murine; conditions: not in parental P388, 1 µM calcein-AM, IC50 could not be calculated
Procedure: (§5) P-gp inhibition was tested with a calcein assay as published previously using two different cell systems: the L-MDR1 cell line that over-expresses human P-gp and the corresponding parental cell line LLC-PK1 [19] and the P-gp over-expressing murine monocytic cell line P388/dx and its parental counterpart cell line P388 as a control. LLC-PK1 and L-MDR1 cells were cultured under standard cell culture conditions with medium M199 supplemented with 10% FCS, 2 mM glutamine, 100 U/mL penicillin, and 100 µg/mL streptomycin sulphate. […] One day before using the cells for the calcein assay, both cell lines were fed with vincristine-free culture medium. […] One day before the inhibition assay, both P388 cell lines were set to the doxorubicin-free culture medium.
(§6) In brief, the assay was performed in 96-well plates with a final calcein-AM concentration of 0.5 µM for the LLC cell system and 1 µM for the P388 cell system. Cells were washed with pre-warmed HBSS supplemented with 10 mM HEPES (HHBSS) and pre-incubated with this buffer for 30 min and subsequently with the test compound for 10 min (LLC cell system) or 15 min (P388 cell system). After pre-incubation, calcein-AM was added and the cells were incubated for 60 min (LLC system) or 30 min (P388 cell system) at 37 °C on a rotary shaker (Noctua, Vienna, Austria). […]

CYP3A4 = system: CYP3A4
Procedure: as §2, §3, §4

human P-gp = target: T3, human P-gp (Homo sapiens, UniProt P08183); test: P-gp inhibition, calcein-AM uptake assay in L-MDR1 vs LLC-PK1 cells; format: cell-based; conditions: L-MDR1 cells and parental LLC-PK1; 0.01–100 µM; 0.5 µM calcein-AM
T3 construct: expressed in transfected cells; host or cells: L-MDR1 (derived from porcine LLC-PK1)
T3 sequence (P08183 whole entry): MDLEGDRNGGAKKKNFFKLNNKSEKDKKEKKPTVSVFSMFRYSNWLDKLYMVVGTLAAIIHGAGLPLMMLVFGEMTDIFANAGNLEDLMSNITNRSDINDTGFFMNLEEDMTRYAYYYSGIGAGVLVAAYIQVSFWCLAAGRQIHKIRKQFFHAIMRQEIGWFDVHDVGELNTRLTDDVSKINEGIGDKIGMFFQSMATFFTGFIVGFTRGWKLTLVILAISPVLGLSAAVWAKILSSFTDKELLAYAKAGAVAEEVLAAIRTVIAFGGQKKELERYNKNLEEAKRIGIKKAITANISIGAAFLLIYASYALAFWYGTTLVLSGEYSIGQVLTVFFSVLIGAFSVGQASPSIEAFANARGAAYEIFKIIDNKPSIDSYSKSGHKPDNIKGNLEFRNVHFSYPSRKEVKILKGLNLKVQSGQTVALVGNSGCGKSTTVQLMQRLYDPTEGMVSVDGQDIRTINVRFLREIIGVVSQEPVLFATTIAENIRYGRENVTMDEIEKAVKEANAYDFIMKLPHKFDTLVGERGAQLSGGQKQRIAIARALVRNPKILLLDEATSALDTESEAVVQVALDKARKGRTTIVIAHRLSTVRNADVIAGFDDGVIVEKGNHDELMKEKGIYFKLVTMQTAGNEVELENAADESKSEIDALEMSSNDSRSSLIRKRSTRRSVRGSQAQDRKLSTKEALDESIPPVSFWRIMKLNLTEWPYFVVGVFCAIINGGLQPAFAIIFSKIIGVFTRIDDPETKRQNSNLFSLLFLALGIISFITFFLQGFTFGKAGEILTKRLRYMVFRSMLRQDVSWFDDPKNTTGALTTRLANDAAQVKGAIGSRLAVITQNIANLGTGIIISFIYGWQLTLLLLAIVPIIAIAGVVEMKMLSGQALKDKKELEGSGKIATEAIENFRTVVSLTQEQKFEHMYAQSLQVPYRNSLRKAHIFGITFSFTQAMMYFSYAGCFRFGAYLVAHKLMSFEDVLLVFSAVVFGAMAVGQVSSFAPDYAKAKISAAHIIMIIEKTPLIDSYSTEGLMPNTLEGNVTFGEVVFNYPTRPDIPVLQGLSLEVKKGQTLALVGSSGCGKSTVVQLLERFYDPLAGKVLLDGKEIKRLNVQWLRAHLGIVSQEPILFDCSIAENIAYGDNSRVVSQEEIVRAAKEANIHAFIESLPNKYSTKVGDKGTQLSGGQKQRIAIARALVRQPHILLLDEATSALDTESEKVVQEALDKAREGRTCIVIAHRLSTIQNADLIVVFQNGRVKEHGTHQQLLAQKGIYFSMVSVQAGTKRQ
Procedure: as §5, §6

[2] = system: organic anion transporters (OATs); conditions: cited from earlier work
ABCG2 = test: Induction assay in LS180 cells, ABCG2 mRNA (real-time RT-PCR); format: cell-based, human; conditions: LS180, 4 days; hydroxychloroquine 1, 2, 10, 20 µM; rifampicin 20 µM; omeprazole 150 µM
Procedure: as §2, §3
RNA was isolated using the GenElute™ Mammalian Total RNA Miniprep Kit, and cDNA was synthesized with the RevertAid™ H Minus First Strand cDNA Synthesis Kit according to the manufacturer’s instructions. mRNA expression was quantified by real-time RT-PCR with the LightCycler® 480 (Roche Applied Science, Mannheim, Germany) as described previously. […] Data were evaluated via calibrator-normalised relative quantification with efficiency correction using the LightCycler® 480 software version 1.5.1.62 (Roche Applied Science, Mannheim, Germany). Results were expressed as the target/reference ratio divided by the target/reference ratio of the calibrator. The results are therefore corrected for sample inhomogeneities and variance caused by detection. All samples were amplified in duplicate and the mean of the technical duplicate was used for further calculation.

OATP2B1 [3] = conditions: at 10 µM; cited from earlier work
OATP1B3 [4] = target: T4, OATP1B3 (Homo sapiens, UniProt Q9NPD5); test: Flow cytometric OATP1B3 inhibition assay (8-FcA uptake, HEK-OATP1B3); format: cell-based
T4 construct: expressed in transfected cells; host or cells: HEK293 (HEK-OATP1B3)
T4 sequence (Q9NPD5 whole entry): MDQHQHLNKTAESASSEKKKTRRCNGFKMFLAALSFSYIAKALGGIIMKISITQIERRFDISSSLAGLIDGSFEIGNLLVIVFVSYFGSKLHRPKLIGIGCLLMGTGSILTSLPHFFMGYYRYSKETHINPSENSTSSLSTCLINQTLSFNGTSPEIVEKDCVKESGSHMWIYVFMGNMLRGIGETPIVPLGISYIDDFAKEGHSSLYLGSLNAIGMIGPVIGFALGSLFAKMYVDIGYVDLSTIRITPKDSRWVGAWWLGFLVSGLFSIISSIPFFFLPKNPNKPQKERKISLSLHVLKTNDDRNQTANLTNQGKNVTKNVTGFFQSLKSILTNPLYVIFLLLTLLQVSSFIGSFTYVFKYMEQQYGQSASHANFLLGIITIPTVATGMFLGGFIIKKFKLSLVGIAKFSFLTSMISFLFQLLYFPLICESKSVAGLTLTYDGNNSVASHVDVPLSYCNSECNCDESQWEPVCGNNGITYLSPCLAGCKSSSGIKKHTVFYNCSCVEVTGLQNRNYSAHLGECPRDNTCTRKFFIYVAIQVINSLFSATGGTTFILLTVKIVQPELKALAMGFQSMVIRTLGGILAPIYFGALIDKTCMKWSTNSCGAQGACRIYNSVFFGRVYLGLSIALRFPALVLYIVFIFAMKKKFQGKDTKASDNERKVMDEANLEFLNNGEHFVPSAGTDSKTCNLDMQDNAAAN
Procedure: as §1

OATP1A2 = conditions: uptake of all-trans-retinol in vitro; cited from earlier work
ABCB1 = test: Induction assay in LS180 cells, ABCB1 mRNA (real-time RT-PCR); format: cell-based, human; conditions: LS180, 4 days; hydroxychloroquine 1, 2, 10, 20 µM; rifampicin 20 µM
Procedure: as §2, §3, §4

MDCKII cells = test: Growth inhibition assay (crystal violet), parental MDCKII; format: cell-based; conditions: Canis lupus familiaris, MDCK-II
Procedure: (§7) Cell lines with overexpression of an efflux transporter are more resistant to the anti-proliferative effects of a compound if this compound is a substrate of the respective transporter and can be extruded from the cell. […] Reversal of drug resistance was tested by using the P-gp-specific inhibitor LY335979 (zosuquidar) or the BCRP-specific inhibitor FTC. The assay using crystal violet staining was conducted and analysed as described previously. Each experiment was performed at least in quadruplicate with n = 8 wells for each concentration (0.1–500 µM).

[5] = system: organic cation/carnitine transporters (OCTNs); conditions: cited from earlier work
P-gp = system: P-gp; design: method as in PMID 7113754; conditions: two case reports; cited from earlier work
[6] = system: P-gp (substrate test by growth inhibition); test: Growth inhibition assay (crystal violet), P-gp over-expressing L-MDR1; format: cell-based; conditions: pig, L-MDR1 cells (LLC-PK1 over-expressing human P-gp)
Procedure: as §7

[7] = system: L-MDR1 cells (over-expression of human P-gp); test: as above; format: cell-based; conditions: growth inhibition L-MDR1 vs LLC-PK1 with and without LY335979
Procedure: as §7

[8] = system: organic cation transporters (OCTs); conditions: cited from earlier work
LS180 cells = test: Growth inhibition in LS180 cells (crystal violet); format: cell-based; conditions: Homo sapiens
Procedure: Proliferation was quantified by crystal violet staining and the assays were conducted as described previously. Each concentration was tested in octuplet and each experiment was performed in quadruplicate.

[9] = system: BCRP (substrate test by growth inhibition); test: Growth inhibition assay (crystal violet), BCRP over-expressing MDCKII-BCRP; format: cell-based; conditions: dog, MDCKII-BCRP cells (MDCKII over-expressing human BCRP)
Procedure: as §7

[10] = system: MDCKII-BCRP cells (over-expressing human BCRP); test: as above; format: cell-based; conditions: growth inhibition MDCKII-BCRP vs MDCKII with and without FTC
Procedure: as §7

LLC-PK1 cells = test: Growth inhibition assay (crystal violet), parental LLC-PK1; format: cell-based; conditions: Sus scrofa
Procedure: as §7

CYP1A2 = test: Induction assay in LS180 cells, CYP1A2 mRNA (real-time RT-PCR); conditions: LS180, 4 days; hydroxychloroquine 1, 2, 10, 20 µM; omeprazole 150 µM
Procedure: as §2, §3, §4

[11] = cited from earlier work
OATP1B3 [12] = conditions: at 10 µM; cited from earlier work
[13] = 0.1–100 µM, 8-FcA uptake, 10 min

T1 sequence (O94956 whole entry): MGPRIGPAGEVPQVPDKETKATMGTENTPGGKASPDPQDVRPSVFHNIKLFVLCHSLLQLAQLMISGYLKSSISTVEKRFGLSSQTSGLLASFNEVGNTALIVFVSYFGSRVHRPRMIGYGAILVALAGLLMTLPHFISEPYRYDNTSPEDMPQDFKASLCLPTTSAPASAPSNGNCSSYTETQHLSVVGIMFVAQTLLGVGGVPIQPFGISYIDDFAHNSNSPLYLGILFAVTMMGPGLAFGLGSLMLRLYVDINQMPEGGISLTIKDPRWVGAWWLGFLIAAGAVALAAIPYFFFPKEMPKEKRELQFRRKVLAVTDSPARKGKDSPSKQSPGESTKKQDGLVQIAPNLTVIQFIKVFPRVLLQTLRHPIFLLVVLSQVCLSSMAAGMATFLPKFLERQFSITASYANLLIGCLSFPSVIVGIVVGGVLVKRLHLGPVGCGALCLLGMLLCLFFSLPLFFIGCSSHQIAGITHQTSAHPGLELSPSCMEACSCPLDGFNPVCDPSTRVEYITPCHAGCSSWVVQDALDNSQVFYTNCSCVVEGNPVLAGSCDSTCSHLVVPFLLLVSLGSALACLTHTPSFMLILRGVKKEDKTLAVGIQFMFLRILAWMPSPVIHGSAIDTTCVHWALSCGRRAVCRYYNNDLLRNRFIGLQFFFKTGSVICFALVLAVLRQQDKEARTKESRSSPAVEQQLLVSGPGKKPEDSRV

For CCN(CCO)CCCC(C)Nc1ccnc2cc(Cl)ccc12 (centres unmarked) [hydroxychloroquine], the OATP2B1 inhibition (OATP2B1 [1]; 0.1–100 µM, 1 µM DBF uptake, 10 min) was “did not inhibit”, the OATP1B1 inhibition (OATP1B1; [13]) was “did not inhibit” and the “CYP1A1 mRNA expression” value (CYP1A1) was “no significant effect”. For the same molecule, the “toxic effects (LDH release)” value (all cell lines used) was “no toxic effects”, the “concentrations at which intracellular calcein fluorescence was increased (weak P-gp inhibition)” value (P-gp (P388/dx cells)) was “higher than 10 µM” and the “CYP3A4 mRNA expression” value (CYP3A4) was “no significant effect”. For the same molecule, the “effect on intracellular calcein fluorescence (P-gp inhibition)” value (human P-gp) was “did not affect intracellular calcein fluorescence”, the “inhibition of organic anion transporters (OATs)” value [2] was “weak inhibition” and the “ABCG2 mRNA expression” value (ABCG2) was “no significant effect”. For the same molecule, the OATP2B1 inhibition (OATP2B1 [3]) was “about 20%”, the OATP1B3 inhibition (OATP1B3 [4]; [13]) was “did not inhibit” and the OATP1A2 inhibition (OATP1A2) was “competitive inhibitor”. The “ABCB1 mRNA expression” value (ABCB1) was “no significant effect”, the IC50 (MDCKII cells) was 89 ± 12 µM and the “inhibition of organic cation/carnitine transporters (OCTNs)” value [5] was “no inhibition”. For the same molecule, the “effect on digoxin plasma concentrations during concurrent therapy” value (P-gp) was “increased plasma concentrations of digoxin”, the IC50 [6] was 427 ± 16 µM and the IC50 ([6]; with LY335979 (zosuquidar), concentration not given, L-MDR1 + LY335979 (P-gp inhibitor)) was 90 ± 1 µM. The P-gp substrate characteristics [7] was “substrate of the efflux transporter P-gp”, the “inhibition of organic cation transporters (OCTs)” value [8] was “no inhibition” and the IC20 (LS180 cells) was 22.5 ± 7.3 µM. For the same molecule, the IC50 [9] was 88 ± 9 µM, the IC50 ([9]; with FTC, concentration not given, MDCKII-BCRP + FTC) was 92 ± 5 µM and the BCRP substrate characteristics [10] was “not transported by BCRP”. The IC50 (LLC-PK1 cells; LLC-PK1, LLC-PK1) was 82 ± 10 µM, the IC50 (LLC-PK1 cells; LLC-PK1, LLC-PK1 + LY335979 (P-gp inhibitor)) was 93 ± 2 µM and the “CYP1A2 mRNA expression” value (CYP1A2) was “no significant effect”. The “blood concentrations at steady-state” value ([11]; 400 mg/day) was “up to 9 µM”, the volume of distribution ([11]; in blood) was 5522 L and the volume of distribution ([11]; in plasma) was 44,257 L. The “concentration within lysosomes at steady-state (postulated)” value ([11]; lysosomes) was 80000 µM, the “average intracellular concentration at steady-state (postulated)” value ([11]; tissue/cells) was 1 mM and the OATP1B3 inhibition (OATP1B3 [12]) was “about 20%”.
With C[C@@H]1O[C@@H](O[C@H]2[C@H](Oc3cc(O)c4c(c3)O[C@H](c3ccc(O)cc3)CC4=O)O[C@H](CO)[C@@H](O)[C@@H]2O)[C@H](O)[C@H](O)[C@H]1O [naringin] the inhibition at 10 min, 1 mM (OATP2B1 [1]; human, probe DBF (1 µM), 1 mM, positive control) was 70%.
For COc1ccc2[nH]c([S+]([O-])Cc3ncc(C)c(OC)c3C)nc2c1 (centres unmarked) [omeprazole], the “CYP1A1 mRNA expression” value (CYP1A1) was “significantly up-regulated”, the “ABCG2 mRNA expression” value (ABCG2) was “significantly up-regulated” and the “CYP1A2 mRNA expression” value (CYP1A2) was “significantly up-regulated”.
With CO[C@H]1/C=C/O[C@@]2(C)Oc3c(C)c(O)c4c(O)c(c(/C=N/N5CCN(C)CC5)c(O)c4c3C2=O)NC(=O)/C(C)=C\C=C\[C@H](C)[C@H](O)[C@@H](C)[C@@H](O)[C@@H](C)[C@H](OC(C)=O)[C@@H]1C [rifampicin] the inhibition at 10 min, 20 µM (OATP1B1; human, HEK293 cells stably transfected with OATP1B1 (HEK-OATP1B1), probe 8-FcA, 20 µM, positive control) was 80%, the “ABCG2 mRNA expression” value (ABCG2) was “slightly” and the inhibition at 10 min, 20 µM (OATP1B3 [4]; human, HEK293 cells stably transfected with OATP1B3 (HEK-OATP1B3), probe 8-FcA, 20 µM, positive control) was 90%. For the same molecule, the “ABCB1 mRNA expression” value (ABCB1) was “significantly up-regulated”.
